Assay results as given in patent US20070036839A1, “Phosphorylated glucomannane polysaccharides containing 1-6 and 1-2 linkages increase weight gain in poultry” (priority 2005, published 2007).

Experiment: Weekly hematology (CBC with differential); on Red Blood Cells HCT: test concentration or dose not given here; on White Blood Cells BASO: test concentration or dose not given here; on White Blood Cells EOS: test concentration or dose not given here; on White Blood Cells LYMP + MONO: test concentration or dose not given here; on White Blood Cells NEUT: test concentration or dose not given here; on White Blood Cells WBC: test concentration or dose not given here
Format: in vivo, Male Ross x Ross broiler chickens

Candida utilis phosphoglucomannan [CUP]
Others Het/Poly (Day 3, dose group 1): 14.67%
Red Blood Cells HCT (Day 3, dose group 1): 30.60%
White Blood Cells BASO (Day 3, dose group 1): 193.33 X/uL
White Blood Cells EOS (Day 3, dose group 1): 0.00 X/uL
White Blood Cells LYMP + MONO (Day 3, dose group 1): 2956.67 X/uL
White Blood Cells NEUT (Day 3, dose group 1): 516.67 X/uL
White Blood Cells WBC (Day 3, dose group 1): 3670 µL⁻¹
Others Het/Poly (Day 3, dose group 3): 20.33%
Red Blood Cells HCT (Day 3, dose group 3): 28.67%
White Blood Cells BASO (Day 3, dose group 3): 78.33 X/uL
White Blood Cells EOS (Day 3, dose group 3): 6.67 X/uL
White Blood Cells LYMP + MONO (Day 3, dose group 3): 2595.00 X/uL
White Blood Cells NEUT (Day 3, dose group 3): 820.00 X/uL
White Blood Cells WBC (Day 3, dose group 3): 3500 µL⁻¹
Others Het/Poly (Day 3, dose group 20): 17.67%
Red Blood Cells HCT (Day 3, dose group 20): 27.00%
White Blood Cells BASO (Day 3, dose group 20): 48.33 X/uL
White Blood Cells EOS (Day 3, dose group 20): 0.00 X/uL
White Blood Cells LYMP + MONO (Day 3, dose group 20): 2828.33 X/uL
White Blood Cells NEUT (Day 3, dose group 20): 623.33 X/uL
White Blood Cells WBC (Day 3, dose group 20): 3500 µL⁻¹
Others Het/Poly (Day 7, dose group 1): 21.00%
White Blood Cells BASO (Day 7, dose group 1): 85.00 X/uL
White Blood Cells EOS (Day 7, dose group 1): 0.00 X/uL
White Blood Cells LYMP + MONO (Day 7, dose group 1): 4665.00 X/uL
White Blood Cells NEUT (Day 7, dose group 1): 1250.00 X/uL
White Blood Cells WBC (Day 7, dose group 1): 6000 µL⁻¹
Others Het/Poly (Day 7, dose group 3): 21.33%
White Blood Cells BASO (Day 7, dose group 3): 193.33 X/uL
White Blood Cells EOS (Day 7, dose group 3): 0.00 X/uL
White Blood Cells LYMP + MONO (Day 7, dose group 3): 4253.33 X/uL
White Blood Cells NEUT (Day 7, dose group 3): 1220.00 X/uL
White Blood Cells WBC (Day 7, dose group 3): 5670 µL⁻¹
Others Het/Poly (Day 7, dose group 20): 25.67%
White Blood Cells BASO (Day 7, dose group 20): 113.33 X/uL
White Blood Cells EOS (Day 7, dose group 20): 0.00 X/uL
White Blood Cells LYMP + MONO (Day 7, dose group 20): 4050.00 X/uL
White Blood Cells NEUT (Day 7, dose group 20): 1503.33 X/uL
White Blood Cells WBC (Day 7, dose group 20): 5670 µL⁻¹
Others Het/Poly (Day 15, dose group 1): 41.33%
Red Blood Cells HCT (Day 15, dose group 1): 27.33%
White Blood Cells BASO (Day 15, dose group 1): 146.67 X/uL
White Blood Cells EOS (Day 15, dose group 1): 0.00 X/uL
White Blood Cells LYMP + MONO (Day 15, dose group 1): 4346.67 X/uL
White Blood Cells NEUT (Day 15, dose group 1): 3506.67 X/uL
White Blood Cells WBC (Day 15, dose group 1): 8000 µL⁻¹
Others Het/Poly (Day 15, dose group 3): 39.00%
Red Blood Cells HCT (Day 15, dose group 3): 31.00%
White Blood Cells BASO (Day 15, dose group 3): 153.33 X/uL
White Blood Cells EOS (Day 15, dose group 3): 0.00 X/uL
White Blood Cells LYMP + MONO (Day 15, dose group 3): 4796.67 X/uL
White Blood Cells NEUT (Day 15, dose group 3): 3383.33 X/uL
White Blood Cells WBC (Day 15, dose group 3): 8330 µL⁻¹
Others Het/Poly (Day 15, dose group 20): 45.33%
Red Blood Cells HCT (Day 15, dose group 20): 22.00%
White Blood Cells BASO (Day 15, dose group 20): 113.33 X/uL
White Blood Cells EOS (Day 15, dose group 20): 0.00 X/uL
White Blood Cells LYMP + MONO (Day 15, dose group 20): 3710.00 X/uL
White Blood Cells NEUT (Day 15, dose group 20): 2843.33 X/uL
White Blood Cells WBC (Day 15, dose group 20): 6670 µL⁻¹
Others Het/Poly (Day 21, dose group 1): 29.00%
Red Blood Cells HCT (Day 21, dose group 1): 30.00%
White Blood Cells BASO (Day 21, dose group 1): 240.00 X/uL
White Blood Cells EOS (Day 21, dose group 1): 0.00 X/uL
White Blood Cells LYMP + MONO (Day 21, dose group 1): 5440.00 X/uL
White Blood Cells NEUT (Day 21, dose group 1): 2320.00 X/uL
White Blood Cells WBC (Day 21, dose group 1): 8000 µL⁻¹
Others Het/Poly (Day 21, dose group 3): 26.00%
Red Blood Cells HCT (Day 21, dose group 3): 30.33%
White Blood Cells BASO (Day 21, dose group 3): 250.00 X/uL
White Blood Cells EOS (Day 21, dose group 3): 0.00 X/uL
White Blood Cells LYMP + MONO (Day 21, dose group 3): 6640.00 X/uL
White Blood Cells NEUT (Day 21, dose group 3): 2443.33 X/uL
White Blood Cells WBC (Day 21, dose group 3): 9330 µL⁻¹
Others Het/Poly (Day 21, dose group 20): 32.67%
Red Blood Cells HCT (Day 21, dose group 20): 31.00%
White Blood Cells BASO (Day 21, dose group 20): 306.67 X/uL
White Blood Cells EOS (Day 21, dose group 20): 0.00 X/uL
White Blood Cells LYMP + MONO (Day 21, dose group 20): 6746.67 X/uL
White Blood Cells NEUT (Day 21, dose group 20): 3280.00 X/uL
White Blood Cells WBC (Day 21, dose group 20): 10330 µL⁻¹
Others Het/Poly (Day 28, dose group 1): 42.00%
Red Blood Cells HCT (Day 28, dose group 1): 29.33%
White Blood Cells BASO (Day 28, dose group 1): 446.67 X/uL
White Blood Cells EOS (Day 28, dose group 1): 0.00 X/uL
White Blood Cells LYMP + MONO (Day 28, dose group 1): 4546.67 X/uL
White Blood Cells NEUT (Day 28, dose group 1): 3673.33 X/uL
White Blood Cells WBC (Day 28, dose group 1): 8670 µL⁻¹
Others Het/Poly (Day 28, dose group 3): 44.67%
Red Blood Cells HCT (Day 28, dose group 3): 30.00%
White Blood Cells BASO (Day 28, dose group 3): 560.00 X/uL
White Blood Cells EOS (Day 28, dose group 3): 0.00 X/uL
White Blood Cells LYMP + MONO (Day 28, dose group 3): 3323.33 X/uL
White Blood Cells NEUT (Day 28, dose group 3): 3450.00 X/uL
White Blood Cells WBC (Day 28, dose group 3): 7330 µL⁻¹
Others Het/Poly (Day 28, dose group 20): 45.00%
Red Blood Cells HCT (Day 28, dose group 20): 33.67%
White Blood Cells BASO (Day 28, dose group 20): 410.00 X/uL
White Blood Cells EOS (Day 28, dose group 20): 0.00 X/uL
White Blood Cells LYMP + MONO (Day 28, dose group 20): 4413.33 X/uL
White Blood Cells NEUT (Day 28, dose group 20): 3843.33 X/uL
White Blood Cells WBC (Day 28, dose group 20): 8670 µL⁻¹
Others Het/Poly (Day 35, dose group 1): 31.33%
Red Blood Cells HCT (Day 35, dose group 1): 29.67%
White Blood Cells BASO (Day 35, dose group 1): 253.33 X/uL
White Blood Cells EOS (Day 35, dose group 1): 0.00 X/uL
White Blood Cells LYMP + MONO (Day 35, dose group 1): 5046.67 X/uL
White Blood Cells NEUT (Day 35, dose group 1): 2700.00 X/uL
White Blood Cells WBC (Day 35, dose group 1): 8000 µL⁻¹
Others Het/Poly (Day 35, dose group 3): 39.67%
Red Blood Cells HCT (Day 35, dose group 3): 31.67%
White Blood Cells BASO (Day 35, dose group 3): 310.00 X/uL
White Blood Cells EOS (Day 35, dose group 3): 0.00 X/uL
White Blood Cells LYMP + MONO (Day 35, dose group 3): 4876.67 X/uL
White Blood Cells NEUT (Day 35, dose group 3): 3146.67 X/uL
White Blood Cells WBC (Day 35, dose group 3): 8330 µL⁻¹
Others Het/Poly (Day 35, dose group 20): 31.00%
Red Blood Cells HCT (Day 35, dose group 20): 28.67%
White Blood Cells BASO (Day 35, dose group 20): 350.00 X/uL
White Blood Cells EOS (Day 35, dose group 20): 0.00 X/uL
White Blood Cells LYMP + MONO (Day 35, dose group 20): 5230.00 X/uL
White Blood Cells NEUT (Day 35, dose group 20): 2420.00 X/uL
White Blood Cells WBC (Day 35, dose group 20): 8000 µL⁻¹
Others Het/Poly (Day 42, dose group 1): 50.00%
Red Blood Cells HCT (Day 42, dose group 1): 27.67%
White Blood Cells BASO (Day 42, dose group 1): 353.33 X/uL
White Blood Cells EOS (Day 42, dose group 1): 106.67 X/uL
White Blood Cells LYMP + MONO (Day 42, dose group 1): 3913.33 X/uL
White Blood Cells NEUT (Day 42, dose group 1): 4626.67 X/uL
White Blood Cells WBC (Day 42, dose group 1): 9000 µL⁻¹
Others Het/Poly (Day 42, dose group 3): 34.33%
Red Blood Cells HCT (Day 42, dose group 3): 27.50%
White Blood Cells BASO (Day 42, dose group 3): 710.00 X/uL
White Blood Cells EOS (Day 42, dose group 3): 0.00 X/uL
White Blood Cells LYMP + MONO (Day 42, dose group 3): 4816.67 X/uL
White Blood Cells NEUT (Day 42, dose group 3): 2806.67 X/uL
White Blood Cells WBC (Day 42, dose group 3): 8330 µL⁻¹
Others Het/Poly (Day 42, dose group 20): 43.00%
Red Blood Cells HCT (Day 42, dose group 20): 34.67%
White Blood Cells BASO (Day 42, dose group 20): 360.00 X/uL
White Blood Cells EOS (Day 42, dose group 20): 0.00 X/uL
White Blood Cells LYMP + MONO (Day 42, dose group 20): 4960.00 X/uL
White Blood Cells NEUT (Day 42, dose group 20): 4013.33 X/uL
White Blood Cells WBC (Day 42, dose group 20): 9330 µL⁻¹
Others Het/Poly (Day 49, dose group 1): 32.00%
Red Blood Cells HCT (Day 49, dose group 1): 30.00%
White Blood Cells BASO (Day 49, dose group 1): 370.00 X/uL
White Blood Cells EOS (Day 49, dose group 1): 0.00 X/uL
White Blood Cells LYMP + MONO (Day 49, dose group 1): 5266.67 X/uL
White Blood Cells NEUT (Day 49, dose group 1): 2696.67 X/uL
White Blood Cells WBC (Day 49, dose group 1): 8330 µL⁻¹
Others Het/Poly (Day 49, dose group 3): 31.33%
Red Blood Cells HCT (Day 49, dose group 3): 29.67%
White Blood Cells BASO (Day 49, dose group 3): 263.33 X/uL
White Blood Cells EOS (Day 49, dose group 3): 0.00 X/uL
White Blood Cells LYMP + MONO (Day 49, dose group 3): 6606.67 X/uL
White Blood Cells NEUT (Day 49, dose group 3): 3130.00 X/uL
White Blood Cells WBC (Day 49, dose group 3): 10000 µL⁻¹
Others Het/Poly (Day 49, dose group 20): 30.33%
Red Blood Cells HCT (Day 49, dose group 20): 31.33%
White Blood Cells BASO (Day 49, dose group 20): 236.67 X/uL
White Blood Cells EOS (Day 49, dose group 20): 0.00 X/uL
White Blood Cells LYMP + MONO (Day 49, dose group 20): 5846.67 X/uL
White Blood Cells NEUT (Day 49, dose group 20): 2583.33 X/uL
White Blood Cells WBC (Day 49, dose group 20): 8670 µL⁻¹
